According to patent publication US20140341812A1, “BETA-AMYLOID PET IMAGING AGENTS” (The United States of America, as represented by the …, priority 2006, published 2014):

Tested on: not given
Test: not given
Conditions: not given

Compound | melting point [°C]
CC(=O)N(C)c1ccc(-c2cc3ccc(Br)cn3c2)cc1C [Ligand L16, N-(4-(6-bromoindolizin-2-yl)-2-methylphenyl)-N-methylacetamide] | 197 to 198
CN(C)c1ccc(-c2cn3cc(Cl)ccc3n2)cc1 [Ligand L5] | 234 to 236
CN(C)c1ccc(-c2cn3cc(C#N)ccc3n2)cc1 [Ligand L8, 2-(4-(dimethylamino)phenyl)-H-imidazo[1,2-a]pyridine-6-carbonitrile] | 269 to 271
CCSc1ccc2nc(-c3ccc(N(C)C)cc3)cn2c1 [Ligand T7, 4-(6-(ethylthio)-H-imidazo[1,2-a]pyridin-2-yl)-N,N-dimethylbenzenamine] | 168 to 171

Target: T1, beta-amyloid plaques in AD brain tissue (Homo sapiens, UniProt P05067)
T1 construct: gauged from the concentration of Aβ1-40 and Aβ1-42 monomers; from tissue; host or cells: postmortem human AD brain grey matter; plaques isolated by SDS/sucrose centrifugation and collagenase/DNase digestion
Test: In vitro binding assay: competitive displacement of [3H]6-OH-BTA-1 from isolated human AD amyloid plaques
Conditions: [3H]6-OH-BTA-1 as reference radioligand; isolated human AD amyloid plaques; Table 4
Protocol: Isolation of human AD amyloid. Postmortem brain […] were obtained from a confirmed AD patient. Pre- and postmortem consent was obtained from next of kin, and brains were removed at autopsy, sectioned and frozen at −70° C. Bags of brain tissue were removed from the freezer to a −20° C. freezer one day before, and then placed on ice 3 h before the experiment. While working on ice, the brain tissue was cut into small sections, and meningies from outer layer of cortex and from fissures between the lobes of the gray matter was removed. After removing the white matter, the grey matter were chopped into small pieces and placed into plastic bags. The tissue was stored in −70° C. freezer for further use.
In a typical isolation, 60 g of brain tissue were used. Initially, an equal volume of 1% SDS was added to homogenize. More 1% SDS was added later until 200 mL. The mixture was vortexed, distributed evenly among 10 Beckman ultracentrifuge tubes, and centrifuged by a Coulter type 55.2 Ti ultracentrifuge rotor using RPM: 40,000; G force; 180,000; temp: 4° C.; time: 30 min. The collected bottom pellets were further homogenized and centrifuged twice more as described above using 50 mL and 20 mL of 1% SDS each, and finally in 20 mL 1.2 M sucrose. The supernatant along the top pellet was discarded. The pellets at the bottom were homogenized and centrifuged in 20 mL 1.9 M sucrose. The top pellets were collected using a cell scrapper, and the bottom pellets were discarded. The collected top pellets were homogenized and centrifuged using 20 mL deionized water. The bottom pellets were further homogenized and centrifuged using 1.3 M sucrose solution into one centrifuge tube. The bottom pellets were homogenized and centrifuged using 20 mL deionized water. The collected pellets were homogenized in 30 mL of 50 mM Tris-HCl, pH 8.0, 2 mM CaCl2. Collagenase CLS3 (120 mg) and DNAase I (10-15 mg) were added. The mixture was vortexed and incubated for 24-56 hrs at 37° C. in a water bath with shaking. After incubation, the suspension was filtered through 41 μm Milllpore filter paper. The collected filtrate was centrifuged and the bottom pellets were homogenized and centrifuged one more time using the Tris-HCl solution. The supernatant was discarded, and the pellets were homogenized and centrifuged using 10 mL 1.9 M sucrose. The top pellet and the 1.9M sucrose layer were transferred to a new tube (this is to remove heavy particles such as metals and salts). Deionized water (40 mL) was added. After homogenization and centrifugation, the collected pellets were put into 500 μL of deionized water to form a homogeneous suspension. It was stored in a refrigerator or freezer for further use.
The amyloid suspension prepared above was diluted by a factor of 40,000 to 50,000 in PBS, and 800 μL suspension was used in each tube. […] Cold 6-OH-BTA-1 or other displacer was dissolved in ethanol to result in a stock solution of 1×10^−3 M, which was further diluted using PBS or ethanol to result in solutions with concentrations ranging from 1×10^−5 to 10^−10 M, and 100 μL was used in each tube. After assembly, the tubes were vortexed, and incubated for 3 hrs at room temperature. After separation using a cell harvester, the filter paper (GF/B filter paper pretreated with 0.5% polyimine solution) was washed with 10% ethanol in PBS (3×3 mL). The filters were placed into 20 mL glass vials and 10 mL scintillation fluid each was added. After overnight incubation, the samples were counted. The data were analyzed using GraphPad Prism 4 or KaleidaGraph 3.6.
Isolated plaques were used in developing an in vitro binding assay. Tritiated-6-OH-BTA-1 was selected as the reference radioligand based on its use in human PET imaging and high affinity.^28 Displacement curves were created using non-radioactive 6-OH-BTA-1 and other novel ligands.

T1 sequence (P05067 672-713 limits assumed): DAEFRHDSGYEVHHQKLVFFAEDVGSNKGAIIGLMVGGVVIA
T1 sequence (P05067 672-711 limits assumed): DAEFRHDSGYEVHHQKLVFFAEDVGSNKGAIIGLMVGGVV

Compound | Ki [nM]
COc1ccc2nc(-c3ccc(N(C)C)cc3)cn2c1 [Ligand L9, 4-(6-methoxy-H-imidazo[1,2-a]pyridin-2-yl)-N,N-dlmethylbenzenamine] | 38.5 ± 5
CNc1ccc(-c2cn3cc(SCC(N)=O)ccc3n2)cc1 [Ligand T1, 2-(2-(4(methylamino)pheny)-H-imidazo[1,2-a]pyridin-6-ylthio)acetamide] | 1840 ± 497
CN(C)c1ccc(-c2cc3c(I)cc(Br)cn3c2)cc1 [Ligand L13, 4-(6-bromo-8-iodoindolizin-2-yl)-N,N-dimethylbenzenamine] | 183 ± 61
CN(C)c1ccc(-c2cn3cc(F)ccc3n2)cc1 [Ligand L6, 4-(6-fluoro-H-imidazo[1,2-a]pyridin-2-yl)-N,N-dimethylbenzenamine] | 13 ± 1.6
CNc1ccc(-c2cn3cc(SCCO)ccc3n2)cc1 [Ligand T3, 2-(2-(4-(methylamino)phenyl)-H-imidazo[1,2-a]pyridin-6-ylthio)ethanol] | 645 ± 75
CN(C)c1ccc(-c2cn3cc(O)ccc3n2)cc1 [Ligand L12, 2-(4-(dimethylamino)phenyl)-H-imidazo[1,2-a]pyridin-6-ol] | 177 ± 31
Cc1cc(-c2cn3cc(Br)ccc3n2)ccc1N [Ligand L20, 4-(6-bromo-H-imidazo[1,2-a]pyridin-2-yl)-2-methylbenzenamine] | 658 ± 47
COc1ccc(CSc2ccc3nc(-c4ccc(N(C)C)cc4)cn3c2)cc1 [Ligand T5, 4-(6-(4-methoxybenzylthio)-H-imidazo[1,2-a]pyridin-2-yl)-N,N-dimethylbenzenamine] | 8.3 ± 1.8
CN(C)c1ccc(-c2cn3cc([N+](=O)[O-])ccc3n2)cc1 [Ligand L7, N,N-dimethyl-4-(6-nitro-H-imidazo[1,2-a]pyridin-2-yl)benzenamine] | 7.6 ± 0.7
CNc1ccc(-c2cn3cc(Br)ccc3n2)cc1Br [Ligand L18, 2-bromo-4-(6-bromo-H-imidazo[1,2-a]pyridin-2-yl)-N-methylbenzenamine] | 7.4 ± 0.6
CN(C)c1ccc(-c2cn3cc(SCC(N)=O)ccc3n2)cc1 [Ligand T2, 2-(2-(4-(dimethylamino)phenyl)-H-imidazo[1,2-a]pyridin-6-ylthio)acetamide] | 391 ± 76
CSc1ccc2nc(-c3ccc(N(C)C)cc3)cn2c1 [Ligand T6, N,N-dimethyl-4-(6-(methylthio)-H-imidazo[1,2-a]pyridin-2-yl)benzenamine] | 7.9 ± 0.6
CN(C)c1ccc(-c2cn3cc(Cl)ccc3n2)cc1 [Ligand L5] | 24.2 ± 5.6
CN(CCCF)c1ccc(-c2cn3cc(I)ccc3n2)cc1 [Ligand L3, reference compound] | 41 ± 5
CN(C)c1ccc(-c2cn3cc(C#N)ccc3n2)cc1 [Ligand L8, 2-(4-(dimethylamino)phenyl)-H-imidazo[1,2-a]pyridine-6-carbonitrile] | 8.2 ± 1
CCSc1ccc2nc(-c3ccc(N(C)C)cc3)cn2c1 [Ligand T7, 4-(6-(ethylthio)-H-imidazo[1,2-a]pyridin-2-yl)-N,N-dimethylbenzenamine] | 8.3 ± 0.5
CN(C)c1ccc(-c2cc3c(C#N)cc(Br)cn3c2)cc1 [Ligand L14, 6-bromo-2-(4-(dimethylamino)phenyl)indolizine-8-carbonitrile] | > 180
CN(C)c1ccc(-c2cn3cc(SCCO)ccc3n2)cc1 [Ligand T4, 2-(2-(4-(dimethylamino)phenyl)-H-imidazo[1,2-a]pyridin-6-ylthio)ethanol] | 88 ± 6
CN(C)c1ccc(-c2cn3cc(Br)ccc3n2)cc1 [Ligand L4] | 5.9 ± 0.4
CN(CCF)c1ccc(-c2cn3cc(I)ccc3n2)cc1 [Ligand L2, N-(2-fluoroethyl)-4-(6-iodo-H-imidazo[1,2-A]pyridin-2-yl)-N-methylbenzeneamine, reference compound] | 31 ± 5

Same assay, conditions: [3H]6-OH-BTA-1 as reference radioligand; isolated human AD amyloid plaques; Table 5

Compound | Ki [nM]
CN(C)c1ccc(-c2nc3ccc(SCCO)cc3s2)cc1 [Ligand P1] | 5.7 ± 0.7
CN(C)c1ccc(-c2cn3cc(Cl)ncc3n2)cc1 [Ligand L21, 4-(6-chloroimidazo[1,2-a]pyrazin-2-yl)-N,N-dimethylbenzenamine] | 88 ± 22
CN(C)c1ccc(-c2cn3cc(Cl)cnc3n2)cc1 [Ligand L22, 4-(6-chloroimidazo[1,2-a]pyrimidin-2-yl)-N,N-dimethylbenzenamine] | 147 ± 20

Same assay, conditions: discussion of the Table 4 Ki values

Compound | binding affinity (in words)
CN(C)c1ccc(-c2cn3cc(O)ccc3n2)cc1 [Ligand L12, 2-(4-(dimethylamino)phenyl)-H-imidazo[1,2-a]pyridin-6-ol] | abolishes all binding affinity
CN(C)c1ccc(-c2cc3c(C#N)cc(Br)cn3c2)cc1 [Ligand L14, 6-bromo-2-(4-(dimethylamino)phenyl)indolizine-8-carbonitrile] | completely removes the binding affinity

Same assay, conditions: displacement of [3H]6-OH-BTA-1 from isolated amyloid plaques

Compound | displacement of reference radioligand [%]
CNc1ccc(-c2nc3ccc(O)cc3s2)cc1 [PIB, 6-hydroxy-2-(4′-methylaminophenyl)benzothiazole, reference compound] | > 95

Target: amyloid (Homo sapiens, UniProt P05067)
Test: not given
Conditions: PET, patients with AD vs healthy people; cited from earlier work

amyloid, sequence (P05067 672-713 limits assumed): as the sequence (P05067 672-713 limits assumed) above
amyloid, sequence (P05067 672-711 limits assumed): as the sequence (P05067 672-711 limits assumed) above

Compound | binding in the brains of patients with AD compared with healthy people
CC(=C(C#N)C#N)c1ccc2cc(N(C)CC[18F])ccc2c1 [fluorine-18-labelled-FDDNP, 2-(1-{6-[(2-[^18F]fluoroethyl)(methyl)amino]-2-naphthyl}ethylidene)malononitrile] | more binding in the brains of patients with AD than in those of healthy people
CNc1ccc(-c2nc3ccc(O)cc3s2)cc1 [carbon-11-labelled-PIB, 6-hydroxy-2-(4′-methylaminophenyl)benzothiazole] | more binding in the brains of patients with AD than in those of healthy people

Tested on: not given
Test: not given
Conditions: after intravenous injection into rodent or monkey; reported in Cai et al., J. Med. Chem. 2004; cited from earlier work

Compound | SUV (standardized uptake value) in brain
CN(CCF)c1ccc(-c2cn3cc(I)ccc3n2)cc1 [[^18F]FEM-IMPY, N-(2-fluoroethyl)-4-(6-iodo-H-imidazo[1,2-A]pyridin-2-yl)-N-methylbenzeneamine] | about 160 % I.D.kg/g
CN(CCC[18F])c1ccc(-c2cn3cc(I)ccc3n2)cc1 [[^18F]FPM-IMPY] | about 160 % I.D.kg/g
